Measurements as given in US20230398130A1, “METHODS AND COMPOSITIONS FOR DIFFERENTIATING STEM CELLS” (Massachusetts Institute of Technology, priority 2020, published 2023).

What was measured:
[1] = test system: ISC-enriched organoids; assay: Primary screen, 384-well 2.5-D organoid differentiation (ENR+CD, 6 days): basal lysozyme secretion (LYZ.NS); type: cell-based, murine; conditions: for Dose.FC.LYZ.NS / SSMD.LYZ.NS: primary screen; for Dose.FC.LYZ.NS: FC vs plate median; for Z.LYZ.NS: standard z score of FC; for SSMD.LYZ.NS: strictly standardized mean difference
Text: (§1) High-throughput screening.

[2] = test system: ISC-enriched organoids; assay: Primary screen, 384-well 2.5-D organoid differentiation (ENR+CD, 6 days): carbachol-induced lysozyme secretion (LYZ.S); type: cell-based, murine; conditions: primary screen; for Dose.FC.LYZ.S: FC vs plate median; for Z.LYZ.S: standard z score; for SSMD.LYZ.S: strictly standardized mean difference
Text: as §1

[3] = test system: ISC-enriched organoids; assay: Primary screen, 384-well 2.5-D organoid differentiation (ENR+CD, 6 days, Target Selective Inhibitor Library, vs whole-plate median): ATP (CellTiter-Glo 3D, CTG); conditions: for Dose.FC.CTG / SSMD.CTG: primary screen; for Dose.FC.CTG: FC vs plate median; for Z.CTG: standard z score of FC; for SSMD.CTG: strictly standardized mean difference
[4] = 1st of the 4 dose lines of the treatment (dose not given)
[5] = 2nd of the 4 dose lines of the treatment (dose not given)
[6] = 3rd of the 4 dose lines of the treatment (dose not given)
[7] = 4th of the 4 dose lines of the treatment (dose not given)

SMILES | SSMD.LYZ.NS [1, 4] | SSMD.LYZ.NS [1, 5] | SSMD.LYZ.NS [1, 6] | SSMD.LYZ.NS [1, 7] | Z.LYZ.S [2, 4] | Z.LYZ.S [2, 5] | Z.LYZ.S [2, 6] | Z.LYZ.S [2, 7] | SSMD.LYZ.S [2, 4] | SSMD.LYZ.S [2, 5] | SSMD.LYZ.S [2, 6] | SSMD.LYZ.S [2, 7] | Z.CTG ([3]; Dose 0.08 uM) | Z.CTG ([3]; Dose 0.40 uM) | Z.CTG ([3]; Dose 2.00 uM) | Z.CTG ([3]; Dose 10.00 uM) | SSMD.CTG [3, 4] | SSMD.CTG [3, 5] | SSMD.CTG [3, 6] | SSMD.CTG [3, 7] | other results
COc1ccc(-c2cnc3c(-c4cccc5ncccc45)cnn3c2)cc1 [ML347] | 1.159 | 1.286 | 0.509 | −0.643 | 0.608 | 0.715 | 0.467 | −1.303 | 0.546 | 0.729 | 0.450 | −1.245 | 0.439 | 0.500 | 0.328 | −0.404 | 0.464 | 0.557 | 0.403 | −0.307 | Dose.FC.LYZ.NS ([1]; Dose 0.08 uM): 0.124 log 2 fold change; Z.LYZ.NS ([1]; Dose 0.08 uM): 1.079; Dose.FC.LYZ.NS ([1]; Dose 0.40 uM): 0.132 log 2 fold change; Z.LYZ.NS ([1]; Dose 0.40 uM): 1.150; Dose.FC.LYZ.NS ([1]; Dose 2.00 uM): 0.069 log 2 fold change; Z.LYZ.NS ([1]; Dose 2.00 uM): 0.600; Dose.FC.LYZ.NS ([1]; Dose 10.00 uM): −0.124 log 2 fold change; Z.LYZ.NS ([1]; Dose 10.00 uM): −1.078; Dose.FC.LYZ.S ([2]; Dose 0.08 uM): 0.094 log 2 fold change; Dose.FC.LYZ.S ([2]; Dose 0.40 uM): 0.111 log 2 fold change; Dose.FC.LYZ.S ([2]; Dose 2.00 uM): 0.072 log 2 fold change; Dose.FC.LYZ.S ([2]; Dose 10.00 uM): −0.202 log 2 fold change; Dose.FC.CTG ([3]; Dose 0.08 uM): 0.184 log 2 fold change; Dose.FC.CTG ([3]; Dose 0.40 uM): 0.209 log 2 fold change; Dose.FC.CTG ([3]; Dose 2.00 uM): 0.137 log 2 fold change; Dose.FC.CTG ([3]; Dose 10.00 uM): −0.169 log 2 fold change
CC(C)C[C@H](NC(=O)CNC(=O)c1cc(Cl)ccc1Cl)B(O)O [MLN2238] | −1.766 | −1.837 | −1.787 | −2.223 | −2.478 | −2.317 | −2.280 | −2.394 | −1.588 | −1.620 | −1.733 | −1.739 | −3.952 | −2.637 | −2.944 | −4.205 | −2.218 | −0.972 | −1.669 | −1.891 | 
O=C(O)c1ccc(Nc2ncc3c(n2)-c2ccc(Cl)cc2C(c2c(F)cccc2F)=NC3)cc1 [MLN8054] | 0.618 | 0.061 | −0.713 | −0.870 | 0.274 | 1.081 | −0.562 | −1.274 | 0.241 | 0.554 | −0.486 | −0.964 | 0.063 | 0.033 | −1.111 | −1.191 | 0.080 | 0.035 | −0.959 | −1.480 | 
CCC(CC)(NC(=O)C(C)C)C(=O)N[C@@H](CCCN=C(N)N)C(=O)NC1(C(=O)NC(c2ccc(F)cc2)c2ccc(F)cc2)CCCC1 [MM-102] | −0.233 | −0.084 | 0.128 | −0.792 | −0.177 | −0.009 | −0.226 | −1.252 | −0.148 | −0.010 | −0.218 | −0.881 | −0.489 | −0.315 | −0.557 | −0.964 | −0.485 | −0.493 | −0.877 | −1.350 | Dose.FC.LYZ.NS ([1]; Dose 0.08 uM): −0.025 log 2 fold change; Z.LYZ.NS ([1]; Dose 0.08 uM): −0.220; Dose.FC.LYZ.NS ([1]; Dose 0.40 uM): −0.010 log 2 fold change; Z.LYZ.NS ([1]; Dose 0.40 uM): −0.090; Dose.FC.LYZ.NS ([1]; Dose 2.00 uM): 0.026 log 2 fold change; Z.LYZ.NS ([1]; Dose 2.00 uM): 0.230; Dose.FC.LYZ.NS ([1]; Dose 10.00 uM): −0.164 log 2 fold change; Z.LYZ.NS ([1]; Dose 10.00 uM): −1.424; Dose.FC.LYZ.S ([2]; Dose 0.08 uM): −0.027 log 2 fold change; Dose.FC.LYZ.S ([2]; Dose 0.40 uM): −0.001 log 2 fold change; Dose.FC.LYZ.S ([2]; Dose 2.00 uM): −0.035 log 2 fold change; Dose.FC.LYZ.S ([2]; Dose 10.00 uM): −0.194 log 2 fold change; Dose.FC.CTG ([3]; Dose 0.08 uM): −0.205 log 2 fold change; Dose.FC.CTG ([3]; Dose 0.40 uM): −0.132 log 2 fold change; Dose.FC.CTG ([3]; Dose 2.00 uM): −0.233 log 2 fold change; Dose.FC.CTG ([3]; Dose 10.00 uM): −0.403 log 2 fold change
